Data from PMC3590450, “Analysis of substrate specificity and cyclin Y binding of PCTAIRE-1 kinase” (Cellular Signalling, 2012).
Several values for one entry are separate records, joined by “and”; a condition that tells them apart may be missing. Identical values can stand only once. One block for each molecule: values may come before it.

Key:
CDK2–cyclin A2 = molecular target: T1, CDK2–cyclin A2 (Homo sapiens, UniProt P20248+P24941); test: In vitro phosphotransferase (kinase) assay of rCDK2–cyclin A2 on peptide substrates; assay type: biochemical; settings: for CDK2-cyclin A2 Vmax: Fig. 2B table
T1 construct: made in house; host or cells: Escherichia coli
Procedure: PCTAIRE-1C-16 (sc-174) and PCTAIRE-1G6.1 (sc-53410) antibodies were from Santa Cruz Biotechnology. Cyclin Y antibody was from Proteintech. HA.11 (16B2) antibody was from Covance Research Products. The following antibodies were raised in sheep by the Division of Signal Transduction Therapy (DSTT, University of Dundee) against the indicated immunogens: PCTAIRE-1 (S552C, full length human 6×his-PCTAIRE-1), cyclin Y (S206D, full length human GST-cyclin Y). rCDK2–cyclin A2 was prepared by overexpression in Escherichia coli as previously described. Peptide substrates for kinase assays were synthesised by GL Biochem, and the peptide library was synthesised by Anaspec, Inc. [γ-^32P] ATP was from PerkinElmer. HRP-conjugated secondary antibodies were from Jackson Immunoresearch. Unless otherwise indicated all other reagents were from Sigma.
(§1) Fig. 1 Determination of PCTAIRE-1 optimal substrate motif. […] (B) GST–PCTAIRE-1 WT/KD was prepared as described in (A) and the optimal substrate motif determined by positional scanning peptide library screening (PSPL) as described in Materials and methods. (C) The activity of GST–PCTAIRE-1 (1 μg) and CDK2–cyclin A2 (10 ng) was assayed against a panel of CDK-tide derivatives (concentration fixed at 250 μM) based on the results of the degenerate library screen (modifications are underlined). Results are expressed as mean ± SEM and are representative of 3 independent experiments.
(§2) Purified rPCTAIRE-1, rCDK2–cyclin A2 or immune complexes isolated from cell/tissue lysates were assayed for phosphotransferase activity in a final assay volume of 50 μl containing 50 mM HEPES pH 7.5, 0.1 mM EGTA, 10 mM Mg(OAc)2, 0.1 mM [γ-^32P] ATP (300 CPM pmol^− 1), 1 mM DTT and the indicated concentrations of peptide substrate. Reactions were incubated at 30 °C and terminated by spotting onto P81 paper and immersion in 75 mM H3PO4. P81 filters were washed 3 × 10 min with H3PO4, rinsed with acetone, air-dried and incorporation of [γ-^32P] determined by Cherenkov counting. Results are expressed in U mg^− 1, where 1 U is defined as the incorporation of 1 nmol phosphate.min^− 1.
(§3) Fig. 2 Optimisation of PCTAIRE-1 substrate peptide. The in vitro phosphotransferase activity of 1 μg GST–PCTAIRE-1 (A) and 10 ng CDK2–cyclin A2 (B) was determined using a panel of CDK-tide derivatives (modifications from the parental peptide are underlined). Peptide conc. was varied over the range 0 > 100 μM and substrate saturation curves were fitted by non-linear regression to the Michaelis–Menten model. Fitted parameters [Km (μM) and Vmax (mU mg^− 1)] are listed in the adjoining table. (C) Based on the CDK-tide optimisation, derivatives of NSF-tide were synthesised (modifications underlined) and assayed for PCTAIRE-1 activity as described in (A + B). 100% GST–PCTAIRE-1 = 164 mU mg^− 1 and 100% CDK2–[…] = 940 U mg^− 1. (D) PCTAIRE-1 was immunoprecipitated from 2 mg of HEK293 lysate and kinase activity determined using 250 μM CDK-tide or the optimised substrate, PKS*PKARKKL (PCTAIRE-tide) as described in Materials and methods. Results are expressed as mean ± SEM and are representative of 3 independent experiments. […]

GST–PCTAIRE-1 [1] = molecular target: T2, GST–PCTAIRE-1 (Homo sapiens, UniProt Q00536); test: In vitro phosphotransferase (kinase) assay of purified GST–PCTAIRE-1 on peptide substrates; assay type: biochemical; settings: 1 μg GST–PCTAIRE-1, peptide 0-100 μM, mean ± SEM
T2 construct: made in house; host or cells: HEK293 cells, transient transfection with pEBG6P
T2 sequence (Q00536 whole entry): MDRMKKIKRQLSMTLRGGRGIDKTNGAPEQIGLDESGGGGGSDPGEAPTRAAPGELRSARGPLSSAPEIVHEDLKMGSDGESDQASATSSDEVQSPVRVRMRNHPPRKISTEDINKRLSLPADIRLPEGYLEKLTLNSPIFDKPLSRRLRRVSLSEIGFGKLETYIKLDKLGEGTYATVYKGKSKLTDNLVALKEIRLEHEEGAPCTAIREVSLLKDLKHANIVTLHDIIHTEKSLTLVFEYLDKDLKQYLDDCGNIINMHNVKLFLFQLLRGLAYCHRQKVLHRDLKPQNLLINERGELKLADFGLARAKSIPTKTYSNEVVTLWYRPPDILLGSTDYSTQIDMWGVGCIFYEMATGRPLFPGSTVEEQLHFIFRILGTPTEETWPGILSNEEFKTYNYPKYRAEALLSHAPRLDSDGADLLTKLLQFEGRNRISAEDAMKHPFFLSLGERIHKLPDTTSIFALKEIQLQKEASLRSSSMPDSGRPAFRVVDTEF
Procedure: (§4) HEK293 cells were transfected with pEBG6P encoding GST-tagged human PCTAIRE-1 and harvested 36 h later as described above. GST–PCTAIRE-1 was isolated by batch-wise purification using Glutathione-Sepharose 4B. Briefly, lysates were incubated with equilibrated resin for 1 h at 4 °C, washed extensively with lysis buffer and eluted with 20 mM reduced glutathione in 50 mM Tris–HCl pH 8, 0.27 M sucrose, 0.1 mM EGTA and 1 mM DTT. Protein concentration was estimated by densitometry of Coomassie-stained gels using BSA standards. PCTAIRE-1 preparations were snap-frozen in N2(l) and stored at − 80 °C.
as §1, §2, §3

GST–PCTAIRE-1 [2] = test: as above; assay type: biochemical, human; settings: GST–PCTAIRE-1 from HEK293 vs CDK2–cyclin A2 from E. coli; data not shown
Procedure: as §4, §1, §2, §3

FLAG-WT–PCTAIRE-1 = FLAG-WT–PCTAIRE-1 (human, UniProt Q00536-1 1-496); test: cell-based or functional assay
Chain of FLAG-WT–PCTAIRE-1 (Q00536 whole entry): as above

[3] = CDK-tide derivatives, 10 ng CDK2–cyclin A2, peptide 0-100 μM, Michaelis–Menten fit, mean ± SEM
[4] = Fig. 2B, CDK-tide derivatives, 10 ng CDK2–cyclin A2, peptide 0-100 μM, Michaelis–Menten fit, 0.1 mM [γ-32P]ATP, 30 °C, mean ± SEM, representative of 3 independent experiments
[5] = Fig. 2A, CDK-tide derivatives, Michaelis–Menten fit, 0.1 mM [γ-32P]ATP, 30 °C, 1 U = 1 nmol phosphate min-1
[6] = Fig. 2A, CDK-tide derivatives, Michaelis–Menten non-linear regression, 0.1 mM [γ-32P]ATP, 30 °C, P81 paper, representative of 3 independent experiments

- CDK2-cyclin A2 Vmax (CDK2–cyclin A2; [3]): No fit
- CDK2-cyclin A2 Km (CDK2–cyclin A2; [4]): No fit
- GST-PCTAIRE-1 Vmax (GST–PCTAIRE-1 [1]; [5]): 550 ± 19 mU.mg^-1
- GST-PCTAIRE-1 Vmax (GST–PCTAIRE-1 [1]; Fig. 2A, CDK-tide derivatives, Michaelis–Menten fit, 0.1 mM [γ-32P]ATP, 30 °C, 1 U = 1 nmol phosphate min-1, listed as PKSPKARKKL): ~ 550 mU.mg^-1
- Km (GST–PCTAIRE-1 [1]; [6]): 4 ± 1 µM
- Km (GST–PCTAIRE-1 [1]; Fig. 2A, CDK-tide derivatives, Michaelis–Menten non-linear regression, 0.1 mM [γ-32P]ATP, 30 °C, P81 paper, representative of 3 independent experiments, listed as PKSPKARKKL): ~4 µM
Molecule: PKSPKARKKL [optimal PCTAIRE-1 substrate peptide …, modified from the parental CDK substrate peptide]

- Km (GST–PCTAIRE-1 [1]; Fig. 2C, NSF-tide derivatives, Michaelis–Menten fit, 0.1 mM [γ-32P]ATP, 30 °C): 15 ± 6 µM
- GST-PCTAIRE-1 Vmax (GST–PCTAIRE-1 [1]; Fig. 2C, NSF-tide derivatives, Michaelis–Menten fit): 34 ± 4 mU.mg^-1
Molecule: FIKICSPDKMIGRRR [peptide around Ser569 of human NSF with three extra C-terminal Arg]

- CDK2-cyclin A2 Vmax (CDK2–cyclin A2; [3]): 1100 ± 54 U.mg^-1
- Km (CDK2–cyclin A2; [4]): ~20 µM and 19 µM
- CDK2–cyclin A2 Vmax as stated in text (CDK2–cyclin A2; running text on Fig. 2B, one range stated for TPKKR, SPKKA and TPKKA together): 1100–1500 mU mg^− 1
- GST-PCTAIRE-1 Vmax (GST–PCTAIRE-1 [1]; [5]): 71 ± 7 mU.mg^-1
- Km (GST–PCTAIRE-1 [1]; [6]): 23 ± 6 µM
- Specific activity of PCTAIRE-1 towards the peptide, fold lower than that of CDK2–cyclin A2 (GST–PCTAIRE-1 [2]): > 2000 fold
Molecule: PKTPKKAKKL [generic CDK substrate peptide … derived from CDK phosphorylation sites of histone H1]

- PCTAIRE-1 kinase activity of the immunoprecipitates towards 50 μM PCTAIRE-tide, with co-expressed cyclin Y against without (FLAG-WT–PCTAIRE-1): > 100 fold
B1: HA-cyclin Y (natural protein, human, UniProt Q8ND76-1 1-341, looked up)
chain: MGNTTSCCVSSSPKLRRNAHSRLESYRPDTDLSREDTGCNLQHISDRENIDDLNMEFNPSDHPRASTIFLSKSQTDVREKRKSLFINHHPPGQIARKYSSCSTIFLDDSTVSQPNLKYTIKCVALAIYYHIKNRDPDGRMLLDIFDENLHPLSKSEVPPDYDKHNPEQKQIYRFVRTLFSAAQLTAECAIVTLVYLERLLTYAEIDICPANWKRIVLGAILLASKVWDDQAVWNVDYCQILKDITVEDMNELERQFLELLQFNINVPSSVYAKYYFDLRSLAEANNLSFPLEPLSRERAHKLEAISRLCEDKYKDLRRSARKRSASADNLTLPRWSPAIIS
